According to PubChem BioAssay (NCI):
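Abbreviation: GI50, concentration required for 50% inhibition of growth. TGI is the concentration that stops growth completely.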

How the values were obtained:
Assay in all cases: NCI anticancer screen, dose series, 384-well format
786-0 renal = test system: 786-0 renal
A549 NSCLC = test system: A549 NSCLC
ACHN renal = test system: ACHN renal
BT-549 breast = test system: BT-549 breast
CAKI-1 renal = test system: CAKI-1 renal
CCRF-CEM leukemia = test system: CCRF-CEM leukemia
DU-145 prostate = test system: DU-145 prostate
HCT-116 colon = test system: HCT-116 colon
HCT-15 colon = test system: HCT-15 colon
HL-60(TB) leukemia = test system: HL-60(TB) leukemia
HOP-62 NSCLC = test system: HOP-62 NSCLC
HOP-92 NSCLC = test system: HOP-92 NSCLC
HT29 colon = test system: HT29 colon
IGROV1 ovarian = test system: IGROV1 ovarian
K-562 leukemia = test system: K-562 leukemia
KM12 colon = test system: KM12 colon
LOX IMVI melanoma = test system: LOX IMVI melanoma
M14 melanoma = test system: M14 melanoma
MALME-3M melanoma = test system: MALME-3M melanoma
MCF7 breast = test system: MCF7 breast
MDA-MB-468 breast = test system: MDA-MB-468 breast
MOLT-4 leukemia = test system: MOLT-4 leukemia
NCI-H226 lung = test system: NCI-H226 lung
NCI-H23 lung = test system: NCI-H23 lung
NCI-H522 lung = test system: NCI-H522 lung
NCI/ADR-RES ovarian = test system: NCI/ADR-RES ovarian
OVCAR-3 ovarian = test system: OVCAR-3 ovarian
OVCAR-4 ovarian = test system: OVCAR-4 ovarian
OVCAR-5 ovarian = test system: OVCAR-5 ovarian
OVCAR-8 ovarian = test system: OVCAR-8 ovarian
PC-3 prostate = test system: PC-3 prostate
RPMI-8226 leukemia = test system: RPMI-8226 leukemia
RXF 393 renal = test system: RXF 393 renal
SF-268 CNS = test system: SF-268 CNS
SF-295 CNS = test system: SF-295 CNS
SF-539 CNS = test system: SF-539 CNS
SK-MEL-2 melanoma = test system: SK-MEL-2 melanoma
SK-MEL-28 melanoma = test system: SK-MEL-28 melanoma
SK-OV-3 ovarian = test system: SK-OV-3 ovarian
SN12C renal = test system: SN12C renal
SNB-19 CNS = test system: SNB-19 CNS
SNB-75 CNS = test system: SNB-75 CNS
SW-620 colon = test system: SW-620 colon
T-47D breast = test system: T-47D breast
U251 glioblastoma = test system: U251 glioblastoma
UACC-62 melanoma = test system: UACC-62 melanoma
UO-31 renal = test system: UO-31 renal

SMILES: N[C@@H](Cc1ccc(N(CCCl)CCCl)cc1)C(=O)O
- GI50 ([…]-0 renal): 28.9 µM
- GI50 (A549 NSCLC): 26.9 µM
- GI50 (ACHN renal): 19 µM
- TGI (ACHN renal): 43.7 µM
- GI50 (BT-549 breast): 16.9 µM
- TGI (BT-549 breast): 82.1 µM
- GI50 (CAKI-1 renal): 13.2 µM
- GI50 (CCRF-CEM leukemia): 2.38 µM
- TGI (CCRF-CEM leukemia): 4.41 µM
- GI50 (DU-145 prostate): 28.5 µM
- TGI (DU-145 prostate): 90 µM
- GI50 (HCT-116 colon): 23.8 µM
- GI50 (HCT-15 colon): 11.1 µM
- GI50 (HL-60(TB) leukemia): 1.34 µM
- TGI (HL-60(TB) leukemia): 2.78 µM
- GI50 (HOP-62 NSCLC): 11.7 µM
- TGI (HOP-62 NSCLC): 40.1 µM
- GI50 (HOP-92 NSCLC): 28.2 µM
- GI50 (HT29 colon): 47 µM
- GI50 (IGROV1 ovarian): 85.1 µM
- GI50 (K-562 leukemia): 27.8 µM
- GI50 (KM12 colon): 70.3 µM
- GI50 (LOX IMVI melanoma): 23.1 µM
- GI50 (M14 melanoma): 20.8 µM
- GI50 (MALME-3M melanoma): 14 µM
- TGI (MALME-3M melanoma): 30.7 µM
- GI50 (MCF7 breast): 9.86 µM
- GI50 (MDA-MB-468 breast): 4.53 µM
- TGI (MDA-MB-468 breast): 18.7 µM
- GI50 (MOLT-4 leukemia): 1.01 µM
- TGI (MOLT-4 leukemia): 2.2 µM
- GI50 (NCI-H226 lung): 87.8 µM
- GI50 (NCI-H23 lung): 17.8 µM
- TGI (NCI-H23 lung): 60.5 µM
- GI50 (NCI-H522 lung): 14.4 µM
- TGI (NCI-H522 lung): 28.1 µM
- GI50 (NCI/ADR-RES ovarian): 55.3 µM
- GI50 (OVCAR-3 ovarian): 26 µM
- GI50 (OVCAR-4 ovarian): 40.7 µM
- GI50 (OVCAR-5 ovarian): 34.2 µM
- GI50 (OVCAR-8 ovarian): 11.8 µM
- GI50 (PC-3 prostate): 80.2 µM
- GI50 (RPMI-8226 leukemia): 7.95 µM
- TGI (RPMI-8226 leukemia): 22.6 µM
- GI50 (RXF 393 renal): 17.3 µM
- TGI (RXF 393 renal): 33.3 µM
- GI50 (SF-268 CNS): 7.04 µM
- TGI (SF-268 CNS): 44.9 µM
- GI50 (SF-295 CNS): 19.2 µM
- TGI (SF-295 CNS): 43.1 µM
- GI50 (SF-539 CNS): 15.4 µM
- TGI (SF-539 CNS): 58.5 µM
- GI50 (SK-MEL-2 melanoma): 63.1 µM
- GI50 (SK-MEL-28 melanoma): 89.7 µM
- GI50 (SK-OV-3 ovarian): 20.5 µM
- TGI (SK-OV-3 ovarian): 96.2 µM
- GI50 (SN12C renal): 8.12 µM
- GI50 (SNB-19 CNS): 48.1 µM
- GI50 (SNB-75 CNS): 20.9 µM
- GI50 (SW-620 colon): 26.8 µM
- GI50 (T-47D breast): 41 µM
- GI50 (U251 glioblastoma): 16.1 µM
- GI50 (UACC-62 melanoma): 15.2 µM
- GI50 (UO-31 renal): 52 µM
